Source: patent US12275684B2, “Methods for making and using endoxifen” (Atossa Therapeutics, Inc., priority 2017, dated 2025)
Read-outs that look alike come from different tables or passages of the source.

Assay: Placebo controlled, dose escalation pharmacokinetic study of oral (Z)-Endoxifen capsules (serum endoxifen; incl. accumulation ratios and dose linearity)
Type: in vivo, human
Settings: female, human, serum
Source text: An objective of the study was to assess the safety and tolerability of oral (Z)-Endoxifen when administered […] orally as a capsule to healthy female volunteers. A secondary objective was to assess the pharmacokinetics of multiple doses of oral (Z)-Endoxifen in the subjects.
Generally, healthy female volunteers aged ≥18 years and ≤65 years were enrolled. 24 participants were enrolled in 3 cohorts and will be administered study drug orally. Three dose levels of orally administered (Z)-Endoxifen were investigated in 3 cohorts. In each cohort participants were randomized to receive an oral (Z)-Endoxifen or placebo in a blinded fashion. Enteric-resistant capsules used in the study were designed as delayed release capsules to resist rupture for at least 30 minutes, but typically, for about 2 hours, under gastric conditions and then open fully in intestinal fluid (DRCaps; Capsugel, a Lonza Company, USA). Enteric-resistant (Swedish Orange size Zero (0); Capsugel, USA) DRCaps capsules manually filled with 1, 2 or 4 mg of (Z)-endoxifen neat in compliance with GMP requirements were used. Placebo capsules contained microcrystalline cellulose an inert common capsule and tablet excipient.
Each cohort enrolled 8 participants, with 6 participants receiving (Z)-Endoxifen 1 mg capsules orally at 1 mg (Cohort 1), 2 mg (Cohort 2) or 4 mg (Cohort 3) doses and 2 participants receiving matching placebo capsules. In Cohort 1 (Dose Level=1 mg) two participants (sentinels) were dosed 24 hours prior to the remaining participants. One sentinel was dosed with (Z)-Endoxifen and the other with placebo. The remaining six participants in Cohort 1 were dosed as no safety concerns were identified in the sentinel participants. The non-sentinel participants in Cohort 1 were admitted to the clinical research facility at least one day later than the sentinels. There were no sentinels in Cohorts 2 and 3.
Participant engagement in this study was for a period of 56 days. These included a 28 day screening period, and a 7 day post treatment period for Pharmacokinetic (PK) sampling. There were two confinement periods, one at the beginning and one at the end of the dosing periods. Participants were confined to the clinical facility on Days-1 through to Day 2 and Days 21 and 22. If participants were to experience any clinically significant adverse events during the study, they would have been required to remain in the clinical facility for further observation at the discretion of the Principal Investigator (PI).
Healthy female volunteers were screened within 28 days prior to commencement of dosing. Participants were admitted to the clinical facility on Day-1 for up to 3 days. The first dose of (Z)-Endoxifen or placebo capsules was administered on Day 1. Following completion of all safety assessments and sampling for PK analyses, participants were discharged from the clinical facility on Day 2. The first dose on Day 1 was followed by a 6-day treatment free period (Days 2-7). Each participant returned to the clinical facility for PK blood draws and safety assessments during the treatment free period on study Days 4 and 6. On Day 8 participants commenced daily administration of (Z)-Endoxifen capsules or placebo capsules for 14 consecutive days (Days 8-21). Participants were supplied with study drug capsules and asked to self administer daily. Participants visited the clinical facility on Days 11, 14 and 17, prior to dose administration, for PK blood draws and safety assessments. On the morning of Day 21 each participant returned to the clinical facility prior to dose administration and were confined to the facility until Day 22 to allow for the collection of PK blood draws and safety assessments. The Day 21 dose was the last administration of study drug. Participants were discharged from the clinical facility on Day 22 and returned for PK blood draws and safety assessments on study Days 24, 26, and 28. […]

AUC(0-inf) (oral, 2 mg, Day 1, 2 mg, N 6, read-out: AUC0-inf, Mean): 1110 ng·h/mL | AUC(0-inf) (oral, 2 mg, Day 1, 2 mg, N 6, read-out: AUC0-inf, Median): 1100 ng·h/mL | AUC(0-t) (oral, 2 mg, Day 1, 2 mg, N 6, read-out: AUC24hr, GeoMean): 301 ng·h/mL | AUC(0-t) (oral, 2 mg, Day 1, 2 mg, N 6, read-out: AUC24hr, Mean): 305 ng·h/mL | AUC(0-t) (oral, 2 mg, Day 1, 2 mg, N 6, read-out: AUC24hr, Median): 303 ng·h/mL | AUC(0-t) (oral, 2 mg, Day 1, 2 mg, N 6, read-out: AUCTlast, GeoMean): 862 ng·h/mL | AUC(0-t) (oral, 2 mg, Day 1, 2 mg, N 6, read-out: AUCTlast, Mean): 889 ng·h/mL | AUC(0-t) (oral, 2 mg, Day 1, 2 mg, N 6, read-out: AUCTlast, Median): 955 ng·h/mL | Cmax (oral, 2 mg, Day 1, 2 mg, N 6, read-out: Cmax, GeoMean): 17.3 ng/mL | Cmax (oral, 2 mg, Day 1, 2 mg, N 6, read-out: Cmax, Mean): 17.7 ng/mL | Cmax (oral, 2 mg, Day 1, 2 mg, N 6, read-out: Cmax, Median): 17.5 ng/mL | Tmax (oral, 2 mg, Day 1, 2 mg, N 6, read-out: Tmax, GeoMean): 4.19 h | Tmax (oral, 2 mg, Day 1, 2 mg, N 6, read-out: Tmax, Mean): 4.28 h | Tmax (oral, 2 mg, Day 1, 2 mg, N 6, read-out: Tmax, Median): 4.17 h | Vd/F (oral, 2 mg, Day 1, 2 mg, N 6, read-out: Vz/F, GeoMean): 127 L | Vd/F (oral, 2 mg, Day 1, 2 mg, N 6, read-out: Vz/F, Mean): 131 L | Vd/F (oral, 2 mg, Day 1, 2 mg, N 6, read-out: Vz/F, Median): 118 L | half-life (oral, 1-4 mg, read-out: apparent terminal half life (t½) by dose level): 42 to 53 h | Tmax (oral, Days 1 and 21, 1-4 mg, read-out: Median Tmax by dose level): 4 to 8 h | AUC(0-inf) (oral, dosing range of 1 mg to 4 mg, read-out: AUC0-inf): 400 to 6000 ng·h/mL | AUC(0-inf) (po, 1 mg, Dose: 1 mg oral, Day 1, read-out: AUC(0-inf), individual subjects): 593 ng·h/mL | AUC(0-t) (po, 1 mg/day, Day 1, 1 mg/day oral (n = 5), read-out: AUC24 hr, Arithmetic Mean): 158 ng·h/mL | Cmax (po, 1 mg/day, Day 1, 1 mg/day oral (n = 5), read-out: Cmax, Arithmetic Mean): 9.6 ng/mL | Tmax (po, 1 mg/day, Day 1, 1 mg/day oral (n = 5), read-out: Median Tmax): 6 h | Tmax (po, 1 mg/day, Day 1, 1 mg/day oral (n = 5), read-out: Tmax (Range)): 2 to 8.08 h | half-life (po, 1 mg/day, Day 1, 1 mg/day oral (n = 5), read-out: t1/2, Arithmetic Mean (converted)): 41.1 h | AUC(0-t) (po, 1 mg/day, Day 21, 1 mg/day oral (n = 5), read-out: AUC24 hr, Arithmetic Mean): 458 ng·h/mL | Cmax (po, 1 mg/day, Day 21, 1 mg/day oral (n = 5), read-out: Cmax, Arithmetic Mean): 24.6 ng/mL | Tmax (po, 1 mg/day, Day 21, 1 mg/day oral (n = 5), read-out: Median Tmax): 8 h | Tmax (po, 1 mg/day, Day 21, 1 mg/day oral (n = 5), read-out: Tmax (Range)): 4 to 6.05 h | half-life (po, 1 mg/day, Day 21, 1 mg/day oral (n = 5), read-out: t1/2, Arithmetic Mean (converted)): 52.6 h | AUC(0-t) (po, 2 mg, Day 21, dose 2 mg oral once daily, GeoMean, N 6, read-out: AUC24hr): 897 ng·h/mL | Cmax (po, 2 mg, Day 21, dose 2 mg oral once daily, GeoMean, N 6, read-out: Cmax): 48.8 ng/mL | Tmax (po, 2 mg, Day 21, dose 2 mg oral once daily, GeoMean, N 6, read-out: Tmax): 3.64 h | half-life (po, 2 mg, Day 21, dose 2 mg oral once daily, GeoMean, N 6, read-out: apparent terminal half life (t½) (converted)): 42.8 h | Vd/F (po, 2 mg, Day 21, dose 2 mg oral once daily, GeoMean, N 6, read-out: volume of distribution (Vd/F)): 138 L | AUC(0-t) (po, 2 mg, Day 21, dose 2 mg oral once daily, Mean, N 6, read-out: AUC24hr): 911 ng·h/mL | Cmax (po, 2 mg, Day 21, dose 2 mg oral once daily, Mean, N 6, read-out: Cmax): 50 ng/mL | Tmax (po, 2 mg, Day 21, dose 2 mg oral once daily, Mean, N 6, read-out: Tmax): 4.01 h | half-life (po, 2 mg, Day 21, dose 2 mg oral once daily, Mean, N 6, read-out: apparent terminal half life (t½) (converted)): 43.4 h | Vd/F (po, 2 mg, Day 21, dose 2 mg oral once daily, Mean, N 6, read-out: volume of distribution (Vd/F)): 139 L | AUC(0-t) (po, 2 mg, Day 21, dose 2 mg oral once daily, Median, N 6, read-out: AUC24hr): 910 ng·h/mL | Cmax (po, 2 mg, Day 21, dose 2 mg oral once daily, Median, N 6, read-out: Cmax): 51 ng/mL | Tmax (po, 2 mg, Day 21, dose 2 mg oral once daily, Median, N 6, read-out: Tmax): 4 h | half-life (po, 2 mg, Day 21, dose 2 mg oral once daily, Median, N 6, read-out: apparent terminal half life (t½) (converted)): 45.7 h | Vd/F (po, 2 mg, Day 21, dose 2 mg oral once daily, Median, N 6, read-out: volume of distribution (Vd/F)): 132 L | AUC(0-inf) (po, 2 mg, Dose: 2 mg oral, Day 1, read-out: AUC(0-inf), individual subjects): 1010 ng·h/mL | AUC(0-t) (po, 2 mg/day, Day 1, 2 mg/day oral (n = 6), read-out: AUC24 hr, Arithmetic Mean): 305 ng·h/mL | Cmax (po, 2 mg/day, Day 1, 2 mg/day oral (n = 6), read-out: Cmax, Arithmetic Mean): 17.7 ng/mL | Tmax (po, 2 mg/day, Day 1, 2 mg/day oral (n = 6), read-out: Median Tmax): 4.17 h | Tmax (po, 2 mg/day, Day 1, 2 mg/day oral (n = 6), read-out: Tmax (Range)): 3 to 6 h | half-life (po, 2 mg/day, Day 1, 2 mg/day oral (n = 6), read-out: t1/2, Arithmetic Mean (converted)): 49 h
SMILES: CC/C(=C(\c1ccc(O)cc1)c1ccc(OCCNC)cc1)c1ccccc1 [(Z)-Endoxifen, (Z)-4-(1-(4-(2-(methylamino)ethoxy)phenyl)-2-phenylbut-1-enyl) phenol]
